Laboratory results: publication PMC9654711, “Neuroprotective Action of Coumarin Derivatives through Activation of TRKB-CREB-BDNF Pathway and Reduction of Caspase Activity in Neuronal Cells Expressing Pro-Aggregated Tau Protein” (International Journal of Molecular Sciences, 2022)

Assays:
[1] = tested on: ΔK280 tauRD-DsRed SH-SY5Y cells; assay: Neurite outgrowth in cells infected with TRKB-specific or scrambled shRNA; type: cell-based, human; conditions: scrambled shRNA; 10 µM
Description: (§1) As described, ∆K280 tauRD-DsRed SH-SY5Y cells were seeded in a 24-well plate (5 × 10^4/well) with retinoic acid addition on day 1, treated with tested compounds (10 µM) and ∆K280 tauRD-DsRed expression was induced with doxycycline (2 μg/mL) on day 2. On day 8, after being fixed in 4% paraformaldehyde for 15 min, permeabilized in 0.1% Triton X-100 for 10 min and blocked in 3% bovine serum albumin (BSA) for 20 min, the cells were stained with TUBB3 (neuronal class III β-tubulin) primary antibody (1:1000; BioLegend, San Diego, CA, USA) at 4 °C overnight, followed by goat anti-rabbit Alexa Fluor® 555 secondary antibody (1:1000; Molecular probes) at room temperature for 2 h, with 4′-6-diamidino-2-phenylindole (DAPI, 0.1 µg/mL; Sigma-Aldrich) included for nuclei staining. Neuronal images were captured using the high-content analysis system as described. Neurite total length (μm), processes (primary neurite extensions projecting directly from the cell body) and branching (points at which primary neurites bifurcated) were analyzed using Neurite Outgrowth Application Module (MetaXpress; Molecular Devices). Around 5000 cells were analyzed in each of three independent experiments for each sample.
Lentiviral short hairpin RNA (shRNA) targeting TRKB (TRCN0000002243, TRCN0000002245 and TRCN0000002246) and a negative control scrambled (TRC2.Void, ASN000001) from National RNAi Core Facility, IMB/GRC, Academia Sinica, Taipei, Taiwan were applied to knock down TRKB expression in ∆K280 tauRD-DsRed SH-SY5Y cells. On day 1, cells were plated on 6-well (for protein analysis) or 24-well (for neurite outgrowth analysis) plates in the presence of retinoic acid as described. On day 2, the cells were infected with lentivirus (multiplicity of infection of 3 for each shRNA) in medium containing polybrene (8 µg/mL; Sigma-Aldrich) to increase the efficiency of viral infection. […] On day 9, the cells were collected for TRKB protein analysis or analyzed for neurite outgrowth as described.

[2] = DPPH free radical-scavenging assay; conditions: compounds tested 10–80 μM; DPPH 100 µM; linear interpolation
Description: The potential free radical-scavenging activity of test compounds was assayed using stable free radical 1,1-diphenyl-2-picrylhydrazyl (DPPH) (Sigma-Aldrich). Briefly, kaempferol, LM-031 or LMDS-1 to -4 (10–80 µM) was added to DPPH (100 µM in 99% ethanol). The solution was vortexed for 15 s, left for 30 min at room temperature, the mixture was transferred to a 96-well UV-transparent microplate and the absorbance at 517 nm was measured using a Multiskan^TM GO microplate spectrophotometer (Thermo Fisher Scientific, Waltham, MA, USA). Radical-scavenging activity was calculated using the equation: 1 − (absorbance of sample/absorbance of control) × 100%, and EC50 estimated using the linear interpolation method.

[3] = tested on: ΔK280 tauRD-DsRed SH-SY5Y cells; assay: High-content analysis of neurite outgrowth; type: cell-based, human; conditions: 10 µM; for Neurite branching: induced untreated 0.87, uninduced 0.99; for Neurite length: induced untreated 27.2 μm, uninduced 30.9 μm
Description: as §1

[4] = Oxygen radical antioxidant capacity (ORAC) assay; conditions: compound at 100 μM
Description: In addition, an oxygen radical antioxidant capacity (ORAC) assay was performed using an OxiSelect™ kit according to the manufacturer’s instruction (Cell Biolabs, San Diego, CA, USA). Briefly, Trolox standards (2.5–50 μM) and samples (4–100 μM) were diluted with 50% acetone. Blank (50% acetone), standards and samples were mixed with fluorescein and incubated at 37 °C for 30 min. Following the free radical initiator 2,2′-azobis(2-methylpropionamidine) dihydrochloride (AAPH), the produced peroxyl radicals (ROO•) quench the fluorescent probe over time. Antioxidants present in the assay block the peroxyl radical oxidation of the fluorescent probe. The course of the reaction was recorded for 60 min, with one measurement every five minutes using a BioTek FLx800 microplate reader. The excitation and emission wavelengths were set at 480 nm and 520 nm, respectively. To quantify the oxygen radical antioxidant activity in a sample, the area under the curve (AUC) for blank, standard and samples was calculated. After subtraction of the blank, the equivalent Trolox concentrations of samples were expressed based on the Trolox standard curve.

[5] = High-content analysis of ΔK280 tauRD-DsRed fluorescence and cell number (folding reporter); type: cell-based, human; conditions: human; induced ΔK280 tauRD-DsRed SH-SY5Y; compounds 2.5–10 µM; read-out: IC50 cytotoxicity based on the cell number analyzed
Description: On day 1, ∆K280 tauRD-DsRed SH-SY5Y cells were seeded in a 96-well plate (3 × 10^4/well), with retinoic acid (10 µM; Sigma-Aldrich) added to induce neuronal differentiation. […] […] For ROS measurement, dichloro-dihydro-fluorescein diacetate (DCFH-DA, 10 µM; Invitrogen, Carlsbad, CA, USA) was added to the cells on day 8 and incubated at 37 °C for 30 min.

[6] = target: T1, E. coli-expressed ΔK280 tauRD protein (Homo sapiens, UniProt P10636, DEL597-597); assay: Anti-ΔK280 tauRD aggregation assay (thioflavin T); type: biochemical; conditions: compounds tested 1–10 μM, 20 μM protein, 48 h, linear interpolation, read-out: EC50 for ΔK280 tauRD aggregation inhibition
T1 construct: assessed by using E. coli-expressed ΔK280 tauRD protein; made in house; host or cells: E. coli
T1 sequence (P10636 with tags, fused parts or gaps DEL597-597): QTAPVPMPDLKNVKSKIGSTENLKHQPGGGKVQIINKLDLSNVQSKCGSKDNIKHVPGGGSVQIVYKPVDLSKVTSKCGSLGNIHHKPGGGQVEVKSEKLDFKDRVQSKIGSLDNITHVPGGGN
Description: Thioflavin T is widely used to visualize and quantify the presence of misfolded amyloid protein aggregates in vitro [74]. The tau aggregation inhibiting potential of Congo red, LM-031 and LMDS-1 to -4 was assessed by using E. coli-expressed ΔK280 tauRD protein [28]. Briefly, purified ΔK280 tauRD protein (20 μM) was incubated with Congo red or coumarin compounds (1–10 μM) in 150 mM NaCl and 20 mM Tris-HCl pH8.0, at 37 °C with shaking for 48 h to form aggregates. Then, thioflavin T (final 5 μM; Acros Organics, Geel, Belgium) was added and incubated for 25 min at room temperature. Fluorescence intensity of samples was recorded at excitation/emission wavelengths of 420/485 nm using an FLx800 microplate reader (BioTek, Winooski, VT, USA). The half maximal effective concentration (EC50) values were calculated by using a linear interpolation method.

EC50 [2] [µM]	EC50 [6] [µM]	Structure (SMILES)	Neurite branching [1]	Neurite branching [3]	Neurite length [3]	Oxygen radical absorbance capacity, activity equivalent to Trolox [4] [μM Trolox]	IC50 at 6 days [5] [µM]
93	36	O=C(c1ccccc1)c1cc2c(O)cccc2oc1=O [LM-031, 3-benzoyl-5-hydroxychromen-2-one]	1.05–1.07	1.00–1.06	30.3–31.5 μm	51	43
132	8	O=C(c1ccccc1)c1cc2ccc(O)cc2oc1=O [LMDS-2]	1.05–1.07	1.00–1.06	30.3–31.5 μm	15	24
122	84	CCOc1ccc2cc(C(=O)c3ccccc3)c(=O)oc2c1 [LMDS-1]	1.05–1.07	1.00–1.06	30.3–31.5 μm	10	25
